Results reported in patent US9771369B2, “Compounds and methods for kinase modulation, and indications therefor” (Plexxikon Inc., priority 2014, dated 2017).

molecular target: c-kit mutant D816V (Homo sapiens (Human), UniProt P10721, D816V/DEL694-753); experiment: c-Kit mutant D816V biochemical assay (AlphaScreen kinase activity)
Method in brief: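 Recombinant His-tagged c-Kit D816V kinase domain (residues 551-934, insert 694-753 deleted, E. coli-expressed) phosphorylating 30 nM biotin-(E4Y)10 with 10 μM ATP, HEPES pH 7.2, Mg/Mn, 5% DMSO; 30 min, room temperature. Phosphorylation detected by AlphaScreen (streptavidin donor/PY30 acceptor beads); IC50 from 8-point 1:3 series.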

c-kit mutant D816V, sequence (P10721 other isoform, or with tags, fused parts or gaps D816V/del 694-753): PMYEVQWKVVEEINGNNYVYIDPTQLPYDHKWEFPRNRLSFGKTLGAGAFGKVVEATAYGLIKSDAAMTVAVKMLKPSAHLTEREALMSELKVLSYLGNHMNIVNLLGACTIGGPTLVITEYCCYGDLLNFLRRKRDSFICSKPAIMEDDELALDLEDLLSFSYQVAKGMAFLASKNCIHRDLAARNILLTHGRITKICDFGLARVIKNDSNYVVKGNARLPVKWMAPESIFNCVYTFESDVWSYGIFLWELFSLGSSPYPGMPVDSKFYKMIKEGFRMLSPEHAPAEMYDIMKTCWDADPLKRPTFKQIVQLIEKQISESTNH

| Structure (SMILES) | IC50 [µM] |
| --- | --- |
| CCOc1ccc(-c2[nH]c(C3(C)CCN(c4ncnc5[nH]c(-c6ccc(N7CCOCC7)nc6)cc45)CC3)nc2C)cc1 [P-3227, 4-[5-[4-[4-[5-(4-ethoxyphenyl)-4-methyl-1H-imidazol-2-yl]-4-methyl-1-piperidyl]-7H-pyrrolo[2,3-d]pyrimidin-6-yl]-2-pyridyl]morpholine] | 0.0001 to 1 |
| COc1ccc(-c2[nH]c(C3(C)CCN(c4ncnc5[nH]c(-c6ccc(NS(C)(=O)=O)cc6)cc45)CC3)nc2C)cc1C [P-3228, N-[4-[4-[4-[5-(4-methoxy-3-methyl-phenyl)-4-methyl-1H-imidazol-2-yl]-4-methyl-1-piperidyl]-7H-pyrrolo[2,3-d]pyrimidin-6-yl]phenyl]methanesulfonamide] | 0.0001 to 1 |
| CCOc1ccc(-c2[nH]c(C3(C)CCN(c4ncnc5[nH]c(-c6ccc(C(N)=O)cc6)cc45)CC3)nc2C)cc1 [P-3229, 4-[4-[4-[5-(4-ethoxyphenyl)-4-methyl-1H-imidazol-2-yl]-4-methyl-1-piperidyl]-7H-pyrrolo[2,3-d]pyrimidin-6-yl]benzamide] | 0.0001 to 1 |
| CCOc1ccc(-c2[nH]c(C3(C)CCN(c4ncnc5[nH]c(-c6ccc(NS(C)(=O)=O)cc6)cc45)CC3)nc2C)cc1 [P-3230, N-[4-[4-[4-[5-(4-ethoxyphenyl)-4-methyl-1H-imidazol-2-yl]-4-methyl-1-piperidyl]-7H-pyrrolo[2,3-d]pyrimidin-6-yl]phenyl]methanesulfonamide] | 0.0001 to 1 |
| Cc1nc(C2(C)CCN(c3ncnc4[nH]c(-c5ccc(C(N)=O)cc5)cc34)CC2)[nH]c1-c1cccc(OC(F)F)c1 [P-3231, 4-[4-[4-[5-[3-(difluoromethoxy)phenyl]-4-methyl-1H-imidazol-2-yl]-4-methyl-1-piperidyl]-7H-pyrrolo[2,3-d]pyrimidin-6-yl]benzamide] | 0.0001 to 1 |
| Cc1nc(C2(C)CCN(c3ncnc4[nH]c(-c5ccc(NS(C)(=O)=O)cc5)cc34)CC2)[nH]c1-c1cccc(OC(F)F)c1 [P-3232, N-[4-[4-[4-[5-[3-(difluoromethoxy)phenyl]-4-methyl-1H-imidazol-2-yl]-4-methyl-1-piperidyl]-7H-pyrrolo[2,3-d]pyrimidin-6-yl]phenyl]methanesulfonamide] | 0.0001 to 1 |
| Cc1nc(C2(C)CCN(c3ncnc4[nH]c(-c5ccc(OCC(=O)O)cc5)cc34)CC2)[nH]c1-c1cccc(OC(F)F)c1 [P-3233, 2-[4-[4-[4-[5-[3-(difluoromethoxy)phenyl]-4-methyl-1H-imidazol-2-yl]-4-methyl-1-piperidyl]-7H-pyrrolo[2,3-d]pyrimidin-6-yl]phenoxy]acetic acid] | 0.0001 to 1 |
| COc1cccc(-c2[nH]c(C3(C)CCN(c4ncnc5[nH]c(-c6ccc(NS(C)(=O)=O)cc6)cc45)CC3)nc2C)c1 [P-3234, N-[4-[4-[4-[5-(3-methoxyphenyl)-4-methyl-1H-imidazol-2-yl]-4-methyl-1-piperidyl]-7H-pyrrolo[2,3-d]pyrimidin-6-yl]phenyl]methanesulfonamide] | 0.0001 to 1 |
| CNC(=O)c1ccc(-c2cc3c(N4CCC(C)(c5nc(C)c(-c6ccc(C(F)F)cc6)[nH]5)CC4)ncnc3[nH]2)cn1 [P-3235, 5-[4-[4-[5-[4-(difluoromethyl)phenyl]-4-methyl-1H-imidazol-2-yl]-4-methyl-1-piperidyl]-7H-pyrrolo[2,3-d]pyrimidin-6-yl]-N-methyl-pyridine-2-carboxamide] | 0.0001 to 1 |
| CNC(=O)c1ccc(-c2cc3c(N4CCC(C)(c5nc(C)c(-c6cccc(OC(F)F)c6)[nH]5)CC4)ncnc3[nH]2)cn1 [P-3236, 5-[4-[4-[5-[3-(difluoromethoxy)phenyl]-4-methyl-1H-imidazol-2-yl]-4-methyl-1-piperidyl]-7H-pyrrolo[2,3-d]pyrimidin-6-yl]-N-methyl-pyridine-2-carb oxamide] | 0.0001 to 1 |
| Cc1nc(C2(C)CCN(c3ncnc4[nH]c(-c5ccc(N6CCOCC6)nc5)cc34)CC2)[nH]c1-c1ccc(C(F)F)cc1 [P-3237, 4-[5-[4-[4-[5-[4-(difluoromethyl)phenyl]-4-methyl-1H-imidazol-2-yl]-4-methyl-1-piperidyl]-7H-pyrrolo[2,3-d]pyrimidin-6-yl]-2-pyridyl]morpholine] | 0.0001 to 1 |
| Cc1nc(C2(C)CCN(c3ncnc4[nH]c(-c5ccc(N6CCOCC6)nc5)cc34)CC2)[nH]c1-c1cccc(OC(F)F)c1 [P-3238, 4-[5-[4-[4-[5-[3-(difluoromethoxy)phenyl]-4-methyl-1H-imidazol-2-yl]-4-methyl-1-piperidyl]-7H-pyrrolo[2,3-d]pyrimidin-6-yl]-2-pyridyl]morpholine] | 0.0001 to 1 |
| Cc1nc(C2(C)CCN(c3ncnc4[nH]c(-c5ccc(C(N)=O)cc5)cc34)CC2)[nH]c1-c1ccc(C(F)F)cc1 [P-3239, 4-[4-[4-[5-[4-(difluoromethyl)phenyl]-4-methyl-1H-imidazol-2-yl]-4-methyl-1-piperidyl]-7H-pyrrolo[2,3-d]pyrimidin-6-yl]benzamide] | 0.0001 to 1 |
| Cc1nc(C2(C)CCN(c3ncnc4[nH]c(-c5ccc(OCC(=O)O)cc5)cc34)CC2)[nH]c1-c1ccc(C(F)F)cc1 [P-3240, 2-[4-[4-[4-[5-[4-(difluoromethyl)phenyl]-4-methyl-1H-imidazol-2-yl]-4-methyl-1-piperidyl]-7H-pyrrolo[2,3-d]pyrimidin-6-yl]phenoxy]acetic acid] | 0.0001 to 1 |
| Cc1nc(C2(C)CCN(c3ncnc4[nH]c(-c5ccc(OCC(=O)O)cc5)cc34)CC2)[nH]c1-c1ccc(OC(F)F)cc1 [P-3241, 2-[4-[4-[4-[5-[4-(difluoromethoxy)phenyl]-4-methyl-1H-imidazol-2-yl]-4-methyl-1-piperidyl]-7H-pyrrolo[2,3-d]pyrimidin-6-yl]phenoxy]acetic acid] | 0.0001 to 1 |
| Cc1nc(C2(C)CCN(c3ncnc4[nH]c(-c5cnn(C(F)F)c5)cc34)CC2)[nH]c1-c1ccc(OC(F)F)cc1 [P-3242, 4-[4-[5-[4-(difluoromethoxy)phenyl]-4-methyl-1H-imidazol-2-yl]-4-methyl-1-piperidyl]-6-[1-(difluoromethyl)pyrazol-4-yl]-7H-pyrrolo[2,3-d]pyrimidine] | 0.0001 to 1 |
| CCOc1ccc(-c2[nH]c(C3(C)CCN(c4ncnc5[nH]c(-c6ccc(C(N)=O)cc6)cc45)CC3)nc2C)cc1C [P-3243, 4-[4-[4-[5-(4-ethoxy-3-methyl-phenyl)-4-methyl-1H-imidazol-2-yl]-4-methyl-1-piperidyl]-7H-pyrrolo[2,3-d]pyrimidin-6-yl]benzamide] | 0.0001 to 1 |
| CCOc1ccc(-c2[nH]c(C3(C)CCN(c4ncnc5[nH]c(-c6ccc(OCC(=O)O)cc6)cc45)CC3)nc2C)cc1C [P-3244, 2-[4-[4-[4-[5-(4-ethoxy-3-methyl-phenyl)-4-methyl-1H-imidazol-2-yl]-4-methyl-1-piperidyl]-7H-pyrrolo[2,3-d]pyrimidin-6-yl]phenoxy]acetic acid] | 0.0001 to 1 |
| CCOc1ccc(-c2[nH]c(C3(C)CCN(c4ncnc5[nH]c(-c6cnn(C(F)F)c6)cc45)CC3)nc2C)cc1C [P-3245, 6-[1-(difluoromethyl)pyrazol-4-yl]-4-[4-[5-(4-ethoxy-3-methyl-phenyl)-4-methyl-1H-imidazol-2-yl]-4-methyl-1-piperidyl]-7H-pyrrolo[2,3-d]pyrimidine] | 0.0001 to 1 |
| CNC(=O)c1ccc(-c2cc3c(N4CCC(C)(c5nc(C)c(-c6ccc(OC(F)F)cc6)[nH]5)CC4)ncnc3[nH]2)cn1 [P-3246, 5-[4-[4-[5-[4-(difluoromethoxy)phenyl]-4-methyl-1H-imidazol-2-yl]-4-methyl-1-piperidyl]-7H-pyrrolo[2,3-d]pyrimidin-6-yl]-N-methyl-pyridine-2-carb oxamide] | 0.0001 to 1 |
